Assay results: article PMC7996170, “Novel Method for Quantifying AhR-Ligand Binding Affinities Using Microscale Thermophoresis” (Biosensors, 2021)
Read-outs that look alike come from different tables or passages of the source.

How the values were obtained:
[1] = system: murine AhR; settings: higher affinity of murine AhR than human AhR; cited from earlier work
[2] = biological target: T1, mARNT (Mus musculus, UniProt P53762, C256S/DEL274-297/DEL351-358); test: Label-free MST on mARNT alone; assay type: binding; settings: Figure S3
T1 construct: Mouse ARNT (residues 85–465) was expressed as N-terminal His6-fusion protein; His6 (N); made in house; host or cells: E. coli BL21(DE3)
T1 sequence (P53762 with tags, fused parts or gaps C256S/DEL274-297/DEL351-358): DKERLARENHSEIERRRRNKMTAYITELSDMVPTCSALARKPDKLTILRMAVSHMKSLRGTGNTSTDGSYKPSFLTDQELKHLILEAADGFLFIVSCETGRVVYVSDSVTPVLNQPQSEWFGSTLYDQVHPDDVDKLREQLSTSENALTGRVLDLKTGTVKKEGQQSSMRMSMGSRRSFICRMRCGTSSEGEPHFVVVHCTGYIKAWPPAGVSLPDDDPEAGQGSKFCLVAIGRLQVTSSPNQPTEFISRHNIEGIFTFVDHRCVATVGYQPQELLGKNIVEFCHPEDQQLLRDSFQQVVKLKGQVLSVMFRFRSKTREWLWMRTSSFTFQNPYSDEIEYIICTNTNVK
Procedure: Microscale thermophoresis (MST) experiments were performed according to the manufacturer’s instructions (NanoTemper Technologies GmbH) using a Monolith NT.LabelFree. In brief, 250 nM of purified AhR-ARNT proteins were diluted in assay buffer (20 mM HEPES pH 8.0, 200 mM NaCl, 5% glycerol, 5 mM DTT, and 0.1% Pluronic F-127) and incubated for 5 min, in the presence of a serial dilution of the different ligands (ligand solubilized in DMSO at a final constant concentration of 2%). After incubation, samples were filled into NT.LabelFree Zero Background MST Premium coated capillaries (NanoTemper Technologies GmbH) and measurements were taken at a constant temperature of 22 °C. MST traces were collected with an LED excitation power of 20% and an MST laser power of 20% and 40%. The MO.Control Analysis software (NanoTemper) was used to analyze the interaction affinity and the dissociation constant (Kd) for each ligand using the Kd fit model. In short, changes in the thermophoretic movement were depicted as changes in the normalized fluorescence ratio before and after heating (ΔFnorm [‰]) and plotted as a function of the ligand concentration. The resulting binding curve is fitted by the software using the best fitting method to derive binding constants and thus the Kd.

[3] = biological target: T2, recombinant AhR-ARNT complex (Homo sapiens, UniProt P35869); test: Competition radioligand binding assay ([3H]TCDD displacement) on purified recombinant AhR-ARNT; settings: for competition with [3H]TCDD (in words): 4 nM [3H]TCDD, increasing concentrations of unlabeled competitor
T2 construct: encompassing the bHLH-PAS A-PAS B domains (amino acid residues 23 to 475); His6 (N, cleaved yes); FleB (Yersinia flagellin subunit, residues 54 to 332, UniProt A1JSQ5) expression tag followed by HRV 3C site (N, cleaved yes); made in house; host or cells: E. coli BL21(DE3)
T2 sequence (P35869 23-475): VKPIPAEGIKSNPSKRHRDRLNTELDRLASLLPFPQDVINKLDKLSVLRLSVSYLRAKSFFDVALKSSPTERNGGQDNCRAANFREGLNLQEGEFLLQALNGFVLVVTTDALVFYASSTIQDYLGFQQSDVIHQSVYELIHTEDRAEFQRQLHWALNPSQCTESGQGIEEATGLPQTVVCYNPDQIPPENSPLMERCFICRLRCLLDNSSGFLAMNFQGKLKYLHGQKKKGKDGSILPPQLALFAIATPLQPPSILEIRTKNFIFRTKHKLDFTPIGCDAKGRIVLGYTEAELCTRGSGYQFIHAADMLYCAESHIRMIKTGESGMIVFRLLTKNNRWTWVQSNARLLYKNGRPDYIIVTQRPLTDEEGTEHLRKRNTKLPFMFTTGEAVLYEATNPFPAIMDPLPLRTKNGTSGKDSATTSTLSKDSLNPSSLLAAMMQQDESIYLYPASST
T2 sequence (P53762 with tags, fused parts or gaps C256S/DEL274-297/DEL351-358 partner): as the sequence (P53762 with tags, fused parts or gaps C256S/DEL274-297/DEL351-358) above
Procedure: Radioligand binding assays were performed as previously established. Briefly, for saturation experiments, 0.5 mg/mL of purified AhR-ARNT or ARNT protein was diluted in MDEG buffer (25 mM MOPS, 1 mM DTT, 1 mM EDTA, 10% glycerol, 20 mM molybdate, pH 7.5) and incubated with increasing concentrations of radioactively labeled [^3H]TCDD tracer. Reactions were supplemented with liver lysate of AhR-deficient mice (AhR^-/-, C57BL/6 background) to a final protein concentration of 5 mg/mL to reduce unspecific binding and adsorption of the tracer to plastic surfaces. Liver lysates were prepared in MDEG buffer by homogenization using the gentleMacs Dissociator (Miltenyi Biotec), followed by ultracentrifugation at 100,000× g and 4 °C for 1 h. Cytosolic fractions were collected, protein concentration determined by Bradford reaction (Protein Assay Kit, Pierce), and further diluted to a final protein concentration of 5 mg/mL in MDEG buffer. […] Subsequently, 30 μL of a Norit A charcoal suspension (100 mg/mL equilibrated in MDEG buffer) was added into each 200 µL of the reaction mixture. Samples were kept on ice for 15 min and centrifuged for another 15 min at 25,000× g and 4 °C. Following this, 150 μL of the supernatant was carefully transferred and radioactivity was measured in a liquid scintillation counter (Tri-Carb 3110TR, PerkinElmer). All samples were measured in triplicate. For competition assays, a constant concentration of [^3H]TCDD (4 nM final) was used, to which a serial dilution of unlabeled competitor molecule dissolved in DMSO was added in excess. All subsequent steps were carried out as described above. The specific binding was defined as the difference of radioactivity between the reactions supplemented with the recombinant protein and AhR-deficient (Ahr^-/-) mouse lysates. Analysis of the data and calculation of the binding constants Kd and receptor density Bmax were performed with GraphPad Prism 7 using a nonlinear regression fitting a saturation binding isotherm. For competition studies, the IC50 values were obtained by fitting a one-site competitive binding equation to the experimental data. Ki values were derived from IC50 using the Cheng–Prusoff equation [19].

[4] = biological target: endogenous hAhR; set-up: method as in PMID 2848187; settings: endogenous hAhR in hepatocyte cell lysates; read-out: equilibrium dissociation constant (Kd); cited from earlier work
[5] = biological target: T3, purified AhR-ARNT complex (recombinant hAhR23–475 with mARNT85–465) (Homo sapiens, UniProt P35869); test: Radioligand saturation binding assay with [3H]TCDD on purified recombinant AhR-ARNT; settings: 4 °C, 24 h
T3 construct: encompassing the bHLH-PAS A-PAS B domains (amino acid residues 23 to 475); His6 (N, cleaved yes); FleB (Yersinia flagellin subunit, residues 54 to 332, UniProt A1JSQ5) expression tag followed by HRV 3C site (N, cleaved yes); made in house; host or cells: E. coli BL21(DE3)
T3 sequence (P35869 23-475): as the sequence (P35869 23-475) above
T3 sequence (P53762 with tags, fused parts or gaps C256S/DEL274-297/DEL351-358 partner): as the sequence (P53762 with tags, fused parts or gaps C256S/DEL274-297/DEL351-358) above
Procedure: Radioligand binding assays were performed as previously established. Briefly, for saturation experiments, 0.5 mg/mL of purified AhR-ARNT or ARNT protein was diluted in MDEG buffer (25 mM MOPS, 1 mM DTT, 1 mM EDTA, 10% glycerol, 20 mM molybdate, pH 7.5) and incubated with increasing concentrations of radioactively labeled [^3H]TCDD tracer. Reactions were supplemented with liver lysate of AhR-deficient mice (AhR^-/-, C57BL/6 background) to a final protein concentration of 5 mg/mL to reduce unspecific binding and adsorption of the tracer to plastic surfaces. Liver lysates were prepared in MDEG buffer by homogenization using the gentleMacs Dissociator (Miltenyi Biotec), followed by ultracentrifugation at 100,000× g and 4 °C for 1 h. Cytosolic fractions were collected, protein concentration determined by Bradford reaction (Protein Assay Kit, Pierce), and further diluted to a final protein concentration of 5 mg/mL in MDEG buffer. […] Following this, 150 μL of the supernatant was carefully transferred and radioactivity was measured in a liquid scintillation counter (Tri-Carb 3110TR, PerkinElmer). All samples were measured in triplicate. […] The specific binding was defined as the difference of radioactivity between the reactions supplemented with the recombinant protein and AhR-deficient (Ahr^-/-) mouse lysates. […]

[6] = biological target: T2, recombinant AhR-ARNT complex; test: Label-free microscale thermophoresis (MST) ligand binding
[7] = cited from earlier work

Clc1cc2c(cc1Cl)Oc1cc(Cl)c(Cl)cc1O2 [TCDD, 2,3,7,8-Tetrachlorodibenzo-p-dioxin]
binding affinity of murine AhR relative to human AhR [1]: ~10 fold
ligand-induced differences in MST traces with mARNT alone (in words) [2]: not when mARNT was used alone
competition with [3H]TCDD (in words) ([3]; 24 h): only an initial competition
displacement of [3H]TCDD from AhR-ARNT by unlabeled competitor (in words) ([3]; increasing protein, constant [3H]TCDD, 48 h, Figure S2): displacement by unlabeled dioxin detectable
Kd [4]: 2.7 to 4.2 nM
maximal binding capacity (Bmax) ([5]; [3H]TCDD saturation binding): 60.3 ± 17.3 pmoles/mg protein
Kd ([5]; [3H]TCDD tracer, 0.5 mg/mL protein, AhR-/- mouse liver lysate added): 39 ± 20 nM
Kd [6]: 139 ± 99 nM
solubility in water (in words) [7]: insolubility in water

Oc1cccc2nc3ccccc3nc12 [1-HP, 1-Hydroxyphenazine]
Ki [3]: 9200 nM
Kd [6]: 943 ± 176 nM

Cc1ccccc1N=Nc1ccc(NC(=O)c2ccnn2C)c(C)c1 [CH-223191, 2-Methyl-2H-pyrazole-3-carboxylic acid (2-methyl-4-o-tolylazo-phenyl)-amide]
Ki ([3]; displacement of 4 nM [3H]TCDD, 24 h, 4 °C, read-out: Ki (from IC50 by Cheng–Prusoff)): 12200 nM
Kd ([6]; 250 nM AhR-ARNT, 2% DMSO, 22 °C, label-free, read-out: Kd (MST)): 496 ± 82 nM

O=Cc1c2[nH]c3ccccc3c2cc2[nH]c3ccccc3c12 [FICZ, 6-Formylindolo [3,2-b] carbazole]
competition with [3H]TCDD (in words) ([3]; 24 h): failed to see competition
stability in aqueous solution (in words) ([7]; tryptophan group): high instability
